ChEMBL document CHEMBL4477244, “Synthesis and biological evaluation of matrine derivatives as anti-hepatocellular cancer agents” (Bioorg Med Chem Lett, 2016)
The source made the active and inactive calls. The rule behind the calls is not given here.

Tests used:
[1] = test system: MCF7; assay: Antiproliferative activity against human MCF7 cells after 48 hrs by MTT assay; assay type: functional, cell-based; details: MCF7, 48 h
[2] = test system: A549; assay: Antiproliferative activity against human A549 cells after 48 hrs by MTT assay; assay type: functional, cell-based; details: A549, 48 h
[3] = test system: Bel-7402; assay: Antiproliferative activity against human Bel7402 cells after 48 hrs by MTT assay; assay type: functional, cell-based; details: for IC50: Bel-7402, 48 h
[4] = test system: SGC-7901; assay: Antiproliferative activity against human SGC7901 cells after 48 hrs by MTT assay; assay type: functional, cell-based; details: SGC-7901, 48 h
[5] = test system: Bel-7402; assay: Upregulation of P21 in human Bel7402 cells at 5 to 20 uM after 24 hrs by Western blot analysis; assay type: functional, cell-based
[6] = test system: HepG2; assay: Downregulation of N-cadherin in human HepG2 cells after 48 hrs by Western blot analysis; assay type: functional, cell-based
[7] = test system: HepG2; assay: Cell cycle arrest in human HepG2 cells assessed as accumulation at G1 phase after 24 hrs by propidium iodide staining-based flow cytometry; assay type: functional
[8] = test system: Bel-7402; assay: Antiproliferative activity against human Bel7402 cells at 5 to 40 uM by MTT assay; assay type: functional, cell-based; details: TDE = time-dependent effect
[9] = test system: HepG2; assay: Upregulation of P21 in human HepG2 cells at 5 to 20 uM after 24 hrs by Western blot analysis; assay type: functional, cell-based
[10] = test system: Bel-7402; assay: Downregulation of N-cadherin in human Bel7402 cells after 48 hrs by Western blot analysis; assay type: functional, cell-based
[11] = test system: Bel-7402; assay: Antimigratory activity in human Bel7402 cells assessed as cell migration at 10 uM incubated for 48 hrs by wound healing assay (reference value: 60%); assay type: functional
[12] = test system: HepG2; assay: Antimigratory activity in human HepG2 cells assessed as cell migration at 20 uM incubated for 48 hrs by wound healing assay (reference value: 58%); assay type: functional
[13] = test system: Bel-7402; assay: Cell cycle arrest in human Bel7402 cells assessed as accumulation at G1 phase at 10 uM after 24 hrs by propidium iodide staining-based flow cytometry (reference value: 49%); assay type: functional
[14] = test system: HepG2; assay: Upregulation of E-cadherin in human HepG2 cells after 48 hrs by Western blot analysis; assay type: functional, cell-based
[15] = test system: Bel-7402; assay: Cell cycle arrest in human Bel7402 cells assessed as accumulation at G1 phase at 20 uM after 24 hrs by propidium iodide staining-based flow cytometry (reference value: 49%); assay type: functional
[16] = test system: HepG2; assay: Antiproliferative activity against human HepG2 cells after 48 hrs by MTT assay; assay type: functional, cell-based
[17] = test system: Bel-7402; assay: Upregulation of E-cadherin in human Bel7402 cells after 48 hrs by Western blot analysis; assay type: functional, cell-based
[18] = test system: HepG2; assay: Cell cycle arrest in human HepG2 cells assessed as accumulation at G1 phase at 10 uM after 24 hrs by propidium iodide staining-based flow cytometry (reference value: 48%); assay type: functional
[19] = test system: Bel-7402; assay: Cell cycle arrest in human Bel7402 cells assessed as accumulation at G1 phase after 24 hrs by propidium iodide staining-based flow cytometry; assay type: functional
[20] = test system: Bel-7402; assay: Antimigratory activity in human Bel7402 cells assessed as cell migration at 20 uM incubated for 48 hrs by wound healing assay (reference value: 60%); assay type: functional
[21] = test system: HepG2; assay: Antimigratory activity in human HepG2 cells assessed as cell migration at 10 uM incubated for 48 hrs by wound healing assay (reference value: 58%); assay type: functional
[22] = test system: HepG2; assay: Antiproliferative activity against human HepG2 cells at 5 to 40 uM by MTT assay; assay type: functional, cell-based; details: TDE = time-dependent effect
[23] = test system: Bel-7402; assay: Upregulation of P27 in human Bel7402 cells at 5 to 20 uM after 24 hrs by Western blot analysis; assay type: functional, cell-based
[24] = test system: HepG2; assay: Cell cycle arrest in human HepG2 cells assessed as accumulation at G1 phase at 20 uM after 24 hrs by propidium iodide staining-based flow cytometry (reference value: 48%); assay type: functional
[25] = test system: HepG2; assay: Upregulation of P27 in human HepG2 cells at 5 to 20 uM after 24 hrs by Western blot analysis; assay type: functional, cell-based

Cc1ccc2c(=O)c3c(oc2c1)N1C[C@@H]2CCC[N+]4([O-])CCC[C@@H]([C@H]24)[C@H]1CC3 (stereo partly specified)
IC50 [1]: 53.3 µM | IC50 [2]: 73.8 µM | IC50 [3]: 49.3 µM | IC50 [4]: 57.1 µM

O=c1c2c(oc3ccc(Cl)cc13)N1C[C@@H]3CCCN4CCC[C@@H]([C@H]34)[C@H]1CC2
IC50 [1]: 48.2 µM | IC50 [2]: 57 µM | IC50 [3]: 36.2 µM | IC50 [4]: 45.2 µM

Cc1ccc2oc3c(c(=O)c2c1)CC[C@@H]1[C@H]2CCCN4CCC[C@@H](CN31)[C@@H]24
IC50 [1]: 57.1 µM | IC50 [2]: 97.2 µM | IC50 [3]: 37 µM | IC50 [4]: 40.5 µM

Cc1cccc2c(=O)c3c(oc12)N1C[C@@H]2CCCN4CCC[C@@H]([C@H]24)[C@H]1CC3
IC50 [1]: 52.9 µM | IC50 [2]: 73.2 µM | IC50 [3]: 40.7 µM | IC50 [4]: 51.5 µM

COc1cccc2c(=O)c3c(oc12)N1C[C@@H]2CCCN4CCC[C@@H]([C@H]24)[C@H]1CC3
IC50 [1]: 75.4 µM | IC50 [2]: 96.5 µM | IC50 [3]: 71.9 µM | IC50 [4]: 81.6 µM

O=c1c2c(oc3ccc(O)cc13)N1C[C@@H]3CCCN4CCC[C@@H]([C@H]34)[C@H]1CC2
IC50 [1]: > 100 µM | IC50 [2]: > 100 µM | IC50 [3]: > 100 µM | IC50 [4]: > 100 µM

O=c1c2c(oc3cc(Cl)ccc13)N1C[C@@H]3CCCN4CCC[C@@H]([C@H]34)[C@H]1CC2
Activity [5]: Active | Activity [6]: Dose-dependent effect | Activity [7]: Dose-dependent effect | IC50 [1]: 28.1 µM | Activity [8]: Tde | Activity [9]: Active | Activity [10]: Dose-dependent effect | Activity [11]: 75% | Activity [12]: 83% | Activity [13]: 67% | Activity [14]: Dose-dependent effect | IC50 [2]: 36 µM | IC50 [3]: 25.2 µM | Activity [15]: 79% | Activity [16]: Dose-dependent effect | Activity [17]: Dose-dependent effect | Activity [18]: 54% | Activity [19]: Dose-dependent effect | Activity [20]: 85% | Activity [21]: 80% | IC50 [4]: 28.9 µM | Activity [22]: Tde | Activity [23]: Active | Activity [24]: 65% | Activity [25]: Active

O=c1c2c(oc3cccc(O)c13)N1C[C@@H]3CCCN4CCC[C@@H]([C@H]34)[C@H]1CC2
IC50 [1]: > 100 µM | IC50 [2]: > 100 µM | IC50 [3]: > 100 µM | IC50 [4]: > 100 µM

Cc1ccc2c(=O)c3c(oc2c1)N1C[C@@H]2CCCN4CCC[C@@H]([C@H]24)[C@H]1CC3
IC50 [1]: 48.6 µM | IC50 [2]: 52.9 µM | IC50 [3]: 30.3 µM | IC50 [4]: 46.8 µM

O=c1c2c(oc3ccccc13)N1C[C@@H]3CCCN4CCC[C@@H]([C@H]34)[C@H]1CC2
IC50 [1]: > 100 µM | IC50 [2]: > 100 µM | IC50 [3]: > 100 µM | IC50 [4]: > 100 µM

COc1cccc2oc3c(c(=O)c12)CC[C@@H]1[C@H]2CCCN4CCC[C@@H](CN31)[C@@H]24
IC50 [1]: 74.1 µM | IC50 [2]: 93.5 µM | IC50 [3]: 69.5 µM | IC50 [4]: 81.7 µM

O=c1c2c(oc3cc(C(F)(F)F)ccc13)N1C[C@@H]3CCC[N+]4([O-])CCC[C@@H]([C@H]34)[C@H]1CC2 (stereo partly specified)
IC50 [1]: 73.8 µM | IC50 [2]: 114 µM | IC50 [3]: 66 µM | IC50 [4]: 79.1 µM

O=c1c2c(oc3cc(O)ccc13)N1C[C@@H]3CCCN4CCC[C@@H]([C@H]34)[C@H]1CC2
IC50 [1]: > 100 µM | IC50 [2]: > 100 µM | IC50 [3]: > 100 µM | IC50 [4]: > 100 µM

O=c1c2c(oc3cc(C(F)(F)F)ccc13)N1C[C@@H]3CCCN4CCC[C@@H]([C@H]34)[C@H]1CC2
IC50 [1]: 30.7 µM | IC50 [2]: 41.2 µM | IC50 [3]: 31.4 µM | IC50 [4]: 34.9 µM

COc1ccc2c(=O)c3c(oc2c1)N1C[C@@H]2CCCN4CCC[C@@H]([C@H]24)[C@H]1CC3
IC50 [1]: 77.4 µM | IC50 [2]: 97.6 µM | IC50 [3]: 48 µM | IC50 [4]: 67.2 µM

O=C1CCC[C@@H]2[C@H]3CCCN4CCC[C@@H](CN12)[C@@H]34 [MATRINE]
IC50 [1]: 2500 µM | IC50 [2]: 3920 µM | Activity [3]: Dose-dependent effect | IC50 [3]: 2060 µM | IC50 [4]: 1380 µM
